Experiments:
Format in all cases: cell-based, mouse
GSPT1 = assay: Ex vivo compound treatment of splenocytes, western blot of GSPT1 degradation (GSPT1 versus GAPDH); settings: 4 hr ex vivo
Method: (§1) For example, degradation of CRBN substrate (e.g., Aiolos, Ikaros, or GSPT1) was evaluated by ex vivo compound treatment of splenocytes isolated from the human CRBN transgenic mice. Spleens from wild type (WT), heterozygous (HET), and homozygous human CRBN knock-in mice (HOM) were collected and dissociated in 5 mL PBS using gentleMACS™ Dissociator (Miltenyi Biotec, San Diego, CA). Spleen homogenates were filtered using 70 μm pre-separation filters (#130-095-823, Miltenyi Biotec) into 15-mL conical tubes and centrifuged at 1200 rpm for 5 min. After decanting, splenocytes were re-suspended in 1 mL of ACK Lysing Buffer (Gibco #A10492-01, Thermo Fisher Scientific, Waltham, MA) for 2 min. to lyse red blood cells. Ten mL of cold PBS was added to each conical tube to stop lysis, and splenocytes were again centrifuged at 1200 rpm for 5 min. After decanting, splenocytes were re-suspended in 1 mL PBS, filtered again, and pooled for each mouse phenotype to count and determine viability using Vi-Cell™ XR cell counter (Beckman Coulter, Indianapolis, IN). After counting and viability check, tubes with pooled splenocytes were centrifuged at 1200 rpm for 5 min., decanted, and resuspended in warm RPMI 1640 media supplemented with 10% FBS at a concentration of 5.5×10^6 splenocytes/mL (20-30 mL depending on number of splenocytes).
(§2) 15×10^6 WT, HET, or HOM splenocytes were plated in wells of separate 6-well plates. Compounds diluted in DMSO (final concentration 0.2%)/RPMI 1640 media were dispensed into wells at concentrations ranging from 10 μM to 1 nM. 0.2% DMSO was also dispensed in one well of each plate as a negative control. Splenocytes were treated with compounds from 4 to 24 hrs in incubators at 37° C. Compound-treated splenocytes were then collected in 15 mL conical tubes, centrifuged at 1500 rpm for 6 mins, media aspirated off, and washed once with 5 mL PBS. After washing, splenocytes were again centrifuged, PBS was aspirated off, and splenocyte pellets were flash frozen on dry ice.
Splenocyte pellets were lysed using cold 1× cell lysis buffer (#9803, Cell Signaling Technology, Danvers, MA), supplemented with cOmplete ULTRA protease inhibitor tablet (#05892920001, Roche Diagnostics Corporation, Indianapolis, IN) and phosphatase inhibitors (Pierce #78442, Thermo Fisher Scientific, Waltham, MA). Protein concentration of lysates was determined using BCA Protein Assay Kit (Pierce #A10492-01, Thermo Fisher Scientific, Waltham, MA) and western blots were run to evaluate substrate degradation resulting from ex vivo compound treatment. Twenty microgram of each splenoctye lysate was loaded onto 4-12% Criterion XT Bis Tris gels (Bio-Rad #3450124, Bio-Rad Laboratories, Hercules, CA) and run at 130 V for 1.5 hr and then transferred onto nitrocellulose membranes using Trans-Blot Turbo Transfer System (Bio-Rad Laboratories). After 1 hr of blocking in Odyssey® Blocking buffer (#927-40100, LI-COR Biotechnology, Lincoln, NE), membranes were incubated with primary antibodies for Aiolos (polyclonal goat, #sc-18683, Santa Cruz Biotechnology, Dallas, TX), Ikaros (monoclonal rabbit, #14859, Cell Signaling Technology), GSPT-1 (polyclonal rabbit, #ab49878, Abcam PLC, Cambridge, United Kingdom), GAPDH (monoclonal mouse, #AM4300, Thermo Fisher Scientific) overnight at 4° C. After washing in PBST, membranes were probed with a fluorescent secondary antibody, Alexa Fluor 680® goat anti-rabbit IgG (Invitrogen #A-21076, Thermo Fisher Scientific) or IRDye® 800CW goat anti-mouse IgG (#926-32210, LI-COR Biotechnology), for 1 hr at room temperature. Following incubation with secondary antibodies, membranes were again washed in PBST. Membranes were scanned using Odyssey® CLx Imaging System (LI-COR Biotechnology) and quantified using Image Studio™ software. […]

Ikaros = assay: Ex vivo compound treatment of splenocytes, western blot of Ikaros degradation (Ikaros versus GAPDH)
Method: as §1, §2
(§3) Splenocyte pellets were lysed using cold 1× cell lysis buffer (#9803, Cell Signaling Technology, Danvers, MA), supplemented with cOmplete ULTRA protease inhibitor tablet (#05892920001, Roche Diagnostics Corporation, Indianapolis, IN) and phosphatase inhibitors (Pierce #78442, Thermo Fisher Scientific, Waltham, MA). Protein concentration of lysates was determined using BCA Protein Assay Kit (Pierce #A10492-01, Thermo Fisher Scientific, Waltham, MA) and western blots were run to evaluate substrate degradation resulting from ex vivo compound treatment. Twenty microgram of each splenoctye lysate was loaded onto 4-12% Criterion XT Bis Tris gels (Bio-Rad #3450124, Bio-Rad Laboratories, Hercules, CA) and run at 130 V for 1.5 hr and then transferred onto nitrocellulose membranes using Trans-Blot Turbo Transfer System (Bio-Rad Laboratories). After 1 hr of blocking in Odyssey® Blocking buffer (#927-40100, LI-COR Biotechnology, Lincoln, NE), membranes were incubated with primary antibodies for Aiolos (polyclonal goat, #sc-18683, Santa Cruz Biotechnology, Dallas, TX), Ikaros (monoclonal rabbit, #14859, Cell Signaling Technology), GSPT-1 (polyclonal rabbit, #ab49878, Abcam PLC, Cambridge, United Kingdom), GAPDH (monoclonal mouse, #AM4300, Thermo Fisher Scientific) overnight at 4° C. After washing in PBST, membranes were probed with a fluorescent secondary antibody, Alexa Fluor 680® goat anti-rabbit IgG (Invitrogen #A-21076, Thermo Fisher Scientific) or IRDye® 800CW goat anti-mouse IgG (#926-32210, LI-COR Biotechnology), for 1 hr at room temperature. Following incubation with secondary antibodies, membranes were again washed in PBST. Membranes were scanned using Odyssey® CLx Imaging System (LI-COR Biotechnology) and quantified using Image Studio™ software.
(§4) A second ex vivo experiment using splenocytes from WT, HET, and HOM mice was conducted to study the dose dependency of Aiolos or Ikaros degradation in response to a range of Compound B concentrations. […]

Aiolos = assay: Ex vivo compound treatment of splenocytes, western blot of Aiolos degradation (Aiolos versus GAPDH)
Method: as §1, §2, §3, §4

[1] = HET and HOM splenocytes, 1 μM or 10 μM, 24 hrs ex vivo
[2] = HET splenocytes, 0.001 μM, 6 hr ex vivo
[3] = HET splenocytes, 0.01 μM, 6 hr ex vivo
[4] = HET splenocytes, 0.1 μM, 6 hr ex vivo
[5] = HET splenocytes, 1 μM, 6 hr ex vivo
[6] = HET splenocytes, 1 μM, 24 hr ex vivo
[7] = HOM splenocytes, 0.001 μM, 6 hr ex vivo
[8] = HOM splenocytes, 0.01 μM, 6 hr ex vivo
[9] = HOM splenocytes, 0.1 μM, 6 hr ex vivo
[10] = HOM splenocytes, 1 μM, 6 hr ex vivo
[11] = HOM splenocytes, 1 μM, 24 hr ex vivo
[12] = WT splenocytes, 1 μM or 10 μM, 24 hrs ex vivo
[13] = WT splenocytes, 1 μM, 24 hr ex vivo
[14] = WT splenocytes, 10 μM, 24 hr ex vivo
[15] = WT splenocytes, any concentration (1, 0.1, 0.01, 0.001 μM), 6 hr ex vivo

In the case of `Cc1ccc(NC(=O)NCc2ccc3c(c2)CN(C2CCC(=O)NC2=O)C3=O)cc1Cl` (stereo not drawn) [Compound C, 1-(3-chloro-4-methylphenyl)-3-((2-(2,6-dioxopiperidin-3-yl)-1-oxoisoindolin-5-yl)methyl)urea], the “degradation of GSPT1” value (GSPT1; HOM splenocytes, 1 nM) is reported as 65%, the “degradation of GSPT1” value (GSPT1; HOM splenocytes, 100 nM) is reported as 89% and the “degradation of GSPT1 (in words)” value (GSPT1; HOM splenocytes) is reported as “significant degradation”. The “degradation of GSPT1” value (GSPT1; WT splenocytes, 1 nM) was 11%, the “degradation of GSPT1” value (GSPT1; WT splenocytes, 100 nM) was 7% and the “degradation of GSPT1 (in words)” value (GSPT1; WT splenocytes) was “only minimal degradation”.

For `O=C1CCC(N2Cc3cc(CNC(=O)C(F)(F)c4ccc(F)cc4)ccc3C2=O)C(=O)N1` (stereo not drawn) [Compound E, 2-(4-flurophenyl)-N-((2-(2,6-dioxopiperidin-3-yl)-1-oxoisoindolin-5-yl)methyl)-2,2-difluoroacetamide], the “degradation of GSPT1” value (GSPT1; HOM splenocytes, 100 nM) was 70%, the “degradation of GSPT1” value (GSPT1; HOM splenocytes, 10 μM) was 74% and the “degradation of GSPT1 (in words)” value (GSPT1; HOM splenocytes) was “significant degradation”. For the same compound, the “degradation of GSPT1” value (GSPT1; WT splenocytes, 100 nM) was 0% and the “degradation of GSPT1” value (GSPT1; WT splenocytes, 10 μM) was 6%.

In the case of `O=C1CC[C@H](N2Cc3c(OCc4ccc(CN5CCOCC5)cc4)cccc3C2=O)C(=O)N1` (stereo in doubt) [Compound B, 3-(4-((4-(morpholinomethyl)benzyl)oxy)-1-oxoisoindolin-2-yl)piperidine-2,6-dione], the “degradation of Ikaros (in words)” value (Ikaros; [1]) is reported as “significant degradation”, the “degradation of Ikaros” value (Ikaros; [2]) is reported as 0% and the “degradation of Ikaros” value (Ikaros; [3]) is reported as 8%. The “degradation of Ikaros” value (Ikaros; [4]) was 45%, the “degradation of Ikaros” value (Ikaros; [5]) was 49% and the “degradation of Ikaros” value (Ikaros; [6]) was 60%. For the same compound, the “degradation of Ikaros” value (Ikaros; HET splenocytes, 10 μM, 24 hr ex vivo) was 68%, the “degradation of Ikaros” value (Ikaros; [7]) was 14% and the “degradation of Ikaros” value (Ikaros; [8]) was 41%. The “degradation of Ikaros” value (Ikaros; [9]) was 55%, the “degradation of Ikaros” value (Ikaros; [10]) was 59% and the “degradation of Ikaros” value (Ikaros; [11]) was 76%. For the same compound, the “degradation of Ikaros” value (Ikaros; HOM splenocytes, 10 μM, 24 hr ex vivo) was 82%, the “degradation of Ikaros (in words)” value (Ikaros; [12]) was “only minimal degradation” and the “degradation of Ikaros” value (Ikaros; [13]) was 23%. For the same compound, the “degradation of Ikaros” value (Ikaros; [14]) was 20%, the “degradation of Ikaros (in words)” value (Ikaros; [15]) was “no degradation” and the “degradation of Aiolos” value (Aiolos; HET (heterozygous human CRBN knock-in) splenocytes, 10 μM, 24 hr ex vivo) was 77%. The “degradation of Aiolos (in words)” value (Aiolos; [1]) was “significant degradation”, the “degradation of Aiolos” value (Aiolos; [2]) was 0% and the “degradation of Aiolos” value (Aiolos; [3]) was 13%. For the same compound, the “degradation of Aiolos” value (Aiolos; [4]) was 32%, the “degradation of Aiolos” value (Aiolos; [5]) was 41% and the “degradation of Aiolos” value (Aiolos; [6]) was 76%. The “degradation of Aiolos” value (Aiolos; HOM (homozygous human CRBN knock-in) splenocytes, 10 μM, 24 hr ex vivo) was 84%, the “degradation of Aiolos” value (Aiolos; [7]) was 28% and the “degradation of Aiolos” value (Aiolos; [8]) was 54%. For the same compound, the “degradation of Aiolos” value (Aiolos; [9]) was 66%, the “degradation of Aiolos” value (Aiolos; [10]) was 78% and the “degradation of Aiolos” value (Aiolos; [11]) was 81%. For the same compound, the “degradation of Aiolos (in words)” value (Aiolos; [12]) was “only minimal degradation”, the “degradation of Aiolos” value (Aiolos; [13]) was 28% and the “degradation of Aiolos” value (Aiolos; [14]) was 27%. For the same compound, the “degradation of Aiolos (in words)” value (Aiolos; [15]) was “no degradation”.

— patent publication US11963520B2, “Transgenic mouse expressing human cereblon” (Celgene Corporation, priority 2016, dated 2024)
